From patent US9642941B2, “Implantable modular hydrogel for salivary gland restoration” (WILLIAM MARSH RICE UNIVERSITY, priority 2011, dated 2017)
Where a name gives a salt, the structure may show the parent alone.

Legend:
M3 muscarinic receptors = biological target: T1, M3 muscarinic receptors (Homo sapiens, UniProt P20309); experiment: Intracellular calcium release (Fluo-4) in acini-like structures on 2.5D / in 3D HA hydrogels treated with acetylcholine; type: cell-based
T1 construct: Parotid gland tissue was collected from patients aged 40-55 years undergoing surgery; endogenous in cells; host or cells: primary acinar-like cells (passage 3-4) from patients' parotid gland tissue, on 2.5D or in 3D HA hydrogels
Experimental: Intracellular calcium [Cai] release studies utilized the calcium indicator dye, Fluo-4 (Invitrogen). Cells were seeded at 1×10^5 cells/gel in cell culture inserts as before. Cells on 2.5D and in 3D hydrogels were cultured for 12 days. Fluo-4 was suspended in 0.8% (w/v) pluronic acid and mixed with 8 mL of 1× Hanks' balanced salt solution (HBSS) without calcium. Cell-seeded hydrogels were incubated with Fluo-4 suspended in pluronic acid for 30 min at 37° C. After 30 min, cells were washed twice with 1×HBSS, and incubated for 30 min in HBSS. After loading and recovery, hydrogels were imaged using a Zeiss LSM 5-live high-speed confocal microscope. Baseline fluorescence was established for 30 sec at 488 nm. Cell-seeded hydrogels then were treated with various concentrations (ranging from 50 μM-500 μM) of the muscarinic agonist acetylcholine chloride. 2.5D hydrogels were flipped so that cells were on the bottom of the chamber slides. 50 μL of the agonist was added to the bottom of the chamber containing 50 μL medium. 3D hydrogels were suspended in 100 μL of medium and treated with 100 μL of agonist. Resulting increases in Cai levels were captured in a series of image scans and by graph plot.
To stimulate fluid secretion, salivary acinar-like cells were treated with acetylcholine. Addition of 50 μM acetylcholine induced a robust calcium response in self-assembling acini-like structures cultured on 2.5D hydrogels (FIG. 27A). Acini-like structures on hydrogels were imaged without saline buffer to minimize movement of hydrogels in the liquid. The calcium response peak seen at ˜5 min can be attributed to the diffusion time needed by the neurotransmitter to pass through the hydrogel to the cells. Treatment with 100 μM acetylcholine produced calcium oscillations lasting over 20 min in multiple cells within a self-assembled acinus-like structure (FIG. 27B). Oscillations from different structures varied in intensity. […] Experiments were performed three times with each agonist concentration, on separate hydrogel cultures. Data were recorded from 3-4 acini-like structures each time. […] Positive controls used a hypotonic solution to induce a calcium response.
Treatment with 50 μM acetylcholine induced calcium oscillations that lasted over 20 minutes in spheroid structures encapsulated in 3D hydrogels (FIG. 27D). […] Compared to the response seen among 2.5D cultures, the increase in [Ca^2+] was quicker in 3D, where cells responded to acetylcholine treatment within 30 seconds while cells in 2.5D took nearly 300 seconds. […] Thus, cell response to acetylcholine agonist in 3D was faster, more intense, and more prolonged than cell response in 2.5D.

β adrenergic receptors = experiment: Exocytic granule production and α-amylase staining in salivary acinar-like cells on/in HA hydrogels; type: cell-based, human; conditions: 50 μM
Experimental: Cells seeded (1×10^5 cells/gel) on/in hydrogels were treated with varying concentrations (10 μM to 100 μM) of isoproterenol hydrochloride (Santa Cruz Biotechnology) and norepinephrine hydrochloride (Sigma), each of which induce granule production and exocytosis, for various time points from 15 min-2 h. After treatment, culture medium was removed and cells were fixed immediately with 100% methanol and stained with α-amylase for microscopic analysis. Functionality of salivary acinar-like cells was assessed by response to neurotransmitter agonists. Norepinephrine binding to the β adrenergic receptors activates the protein secretion pathway. In this study, the sympathomimetic β adrenergic agonists, norepinephrine and isoproterenol, were used to stimulate protein production and exocytosis. Salivary acinar-like cells cultured on/in hydrogels were treated with 50 μM isoproterenol for 15 min to 1 hr. After treatment, cells were immediately fixed and stained, then analyzed for granule formation and α-amylase expression. FIGS. 21-25 quantify the extent of amylase response, using the intensity of fluorescence staining as a surrogate. […] Exocytosing granules stained in red for α-amylase are seen budding out from the cell membrane in FIG. 21C, E, F. Granule production has been quantified in FIG. 26. Upon stimulation, acini-like structures in 3D also secreted α-amylase into the hydrogel (FIG. 21E, F). α-Amylase staining is quantified in FIGS. 23-25.

HP = conditions: read-out: Dissociation constant (Kd) of complex with HP; cited from earlier work
[1] = system: spheroids in 3D HA hydrogels; experiment: FGF7 treatment of spheroids in 3D HA hydrogels; type: cell-based, human; conditions: 25 ng/mL FGF7 daily for 10 d and 12 d
Experimental: FIG. 14 is a picture depicting organized spheroids. […] (a) Untreated cells at 20 d culture. (b,c) Spheroids treated with 25 ng/mL FGF7 daily for (b) 10 d and (c) 12 d.
Functional neotissue glands must advance beyond spherical lumen to initiate directional delivery of secretory products and recreate the differentiated roles of fluid producing acinar and fluid resorbing ductal cells. Recent work identified the specific roles of FGF7 and FGF10 in inducing ductal elongation and branching, respectively. These roles are tied to the cells' perceived gradients of each GF from a point source, defined by diffusion through ECM and controlled by their binding to HS (in Pln and other proteoglycans). […] When delivered through media, FGF7 may induce overall larger spheroids (as expected, when FGF7 is not delivered from a directional point source). […] HGPs are an optimal mechanism for directional controlled delivery of FGF7 and FGF10.

T1 sequence (P20309 whole entry): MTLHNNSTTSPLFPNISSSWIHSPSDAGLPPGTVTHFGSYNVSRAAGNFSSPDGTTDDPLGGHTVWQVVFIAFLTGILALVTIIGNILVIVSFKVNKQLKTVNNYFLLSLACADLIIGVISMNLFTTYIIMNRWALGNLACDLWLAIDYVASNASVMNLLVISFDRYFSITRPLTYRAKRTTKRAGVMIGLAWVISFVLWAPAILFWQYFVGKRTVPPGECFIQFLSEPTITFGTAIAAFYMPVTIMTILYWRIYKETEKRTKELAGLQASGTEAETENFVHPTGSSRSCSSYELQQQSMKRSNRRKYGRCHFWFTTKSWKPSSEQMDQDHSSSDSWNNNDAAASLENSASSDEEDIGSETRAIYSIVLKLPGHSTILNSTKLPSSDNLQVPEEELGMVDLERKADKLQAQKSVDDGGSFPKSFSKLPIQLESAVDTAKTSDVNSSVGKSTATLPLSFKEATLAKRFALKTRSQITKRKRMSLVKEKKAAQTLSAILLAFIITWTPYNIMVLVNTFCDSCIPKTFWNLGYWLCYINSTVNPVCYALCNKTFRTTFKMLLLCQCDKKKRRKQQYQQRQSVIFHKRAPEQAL

Molecule: CC(=O)OCC[N+](C)(C)C.[Cl-] [ACh, acetylcholine chloride]
- Average Peak Height (Intensity) (M3 muscarinic receptors; 2.5D hydrogel, 50 μM ACh): 58 ± 11
- Average Peak Length (M3 muscarinic receptors; 2.5D hydrogel, 50 μM ACh): 42 ± 21 s
- Percent Responders (M3 muscarinic receptors; 2.5D hydrogel, 50 μM ACh): 33%
- Average Peak Height (Intensity) (M3 muscarinic receptors; 2.5D hydrogel, 100 μM ACh): 10 ± 3
- Average Peak Length (M3 muscarinic receptors; 2.5D hydrogel, 100 μM ACh): 46 ± 9 s
- Percent Responders (M3 muscarinic receptors; 2.5D hydrogel, 100 μM ACh): 22%
- Time of calcium response peak (M3 muscarinic receptors; 2.5D hydrogels, 50 μM): ~5 min
- Duration of calcium oscillations (M3 muscarinic receptors; 2.5D hydrogels, 100 μM): over 20 min
- Calcium oscillations (M3 muscarinic receptors; 3D cultures, 100 μM): induced similar oscillations
- Average Peak Height (Intensity) (M3 muscarinic receptors; 3D hydrogel, 50 μM ACh): 39 ± 6
- Average Peak Length (M3 muscarinic receptors; 3D hydrogel, 50 μM ACh): 164 ± 8 s
- Percent Responders (M3 muscarinic receptors; 3D hydrogel, 50 μM ACh): 43%
- Average Peak Height (Intensity) (M3 muscarinic receptors; 3D hydrogel, 100 μM ACh): 14 ± 8
- Average Peak Length (M3 muscarinic receptors; 3D hydrogel, 100 μM ACh): 180 ± 34 s
- Percent Responders (M3 muscarinic receptors; 3D hydrogel, 100 μM ACh): 16%
- Duration of calcium oscillations (M3 muscarinic receptors; 3D hydrogels, 50 μM): over 20 minutes
- Time until cells responded with increase in [Ca2+] (M3 muscarinic receptors; cells in 2.5D): ~300 s
- Time until cells responded with increase in [Ca2+] (M3 muscarinic receptors; cells in 3D): ≤ 30 s

Molecule: CC(C)NCC(O)c1ccc(O)c(O)c1 (stereo not drawn) [isoproterenol, isoproterenol hydrochloride]
- α-Amylase localisation (β adrenergic receptors; 15 min): α-amylase near the membrane periphery
- Granule formation and α-amylase staining (β adrenergic receptors; 1 h, 2.5D and 3D): presence of granules and robust α-amylase staining

Molecule: NC[C@H](O)c1ccc(O)c(O)c1 [norepinephrine, norepinephrine hydrochloride]
- Secretory granules (β adrenergic receptors; 2.5D and 3D): displayed multiple secretory granules

Molecule: VEGF
- Kd (HP): 165 nM

B1: FGF7: heparin-binding growth factor (protein, UniProt P21781 32-194, looked up)
Fibroblast growth factor 7: CNDMTPEQMATNVNCSSPERHTRSYDYMEGGDIRVRRLFCRTQWYLRIDKRGKVKGTQEMKNNYNIMEIRTVAVGIVAIKGVESEFYLAMNKEGKLYAKKECNEDCNFKELILENHYNTYASAKWTHNGGEMFVALNQKGIPVRGKKTKKEQKTAHFLPMAIT
- Spheroid size [1]: increases spheroid size
- Kd (HP): 30 to 49 nM
